Tests used:
MAPK14 (human) = MAPK14 (human) (UniProt Q16539); assay: Inhibition of MAPK14 Kinase Activity
MAPK14 (mouse) = assay: Assessment of MAPK14 Kinase Activity in RAW 264.7 Cells

MAPK14 (human), sequence (Q16539 whole entry, looked up): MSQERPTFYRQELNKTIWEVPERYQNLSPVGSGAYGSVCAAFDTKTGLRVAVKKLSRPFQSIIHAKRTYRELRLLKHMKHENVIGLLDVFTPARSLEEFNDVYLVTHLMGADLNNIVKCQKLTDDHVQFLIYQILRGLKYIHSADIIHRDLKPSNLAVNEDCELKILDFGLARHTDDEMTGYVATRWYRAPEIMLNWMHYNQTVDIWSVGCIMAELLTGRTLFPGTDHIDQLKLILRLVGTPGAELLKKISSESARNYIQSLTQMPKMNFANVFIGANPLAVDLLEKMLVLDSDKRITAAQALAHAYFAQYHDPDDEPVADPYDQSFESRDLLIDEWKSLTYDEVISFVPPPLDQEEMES

`CC(C)Cn1c(N)nc2ccc(-c3[nH]c(-c4c(Cl)cccc4Cl)nc3-c3ccccc3)nc21` showed an IC50 (MAPK14 (human)) of 3.7 nM and an IC50 (MAPK14 (mouse)) of 64.7 nM.
With `CC(C)Cn1c(N)nc2ccc(-c3[nH]c(C(C)(C)C)nc3-c3ccc(F)cc3F)nc21` the IC50 (MAPK14 (mouse)) was 41.8 nM.
Work on `CC(C)(C)Cn1c(N)nc2ccc(-c3[nH]c(C(C)(C)C)nc3-c3ccc(F)cc3)nc21` yielded an IC50 (MAPK14 (human)) of 7 nM and an IC50 (MAPK14 (mouse)) of 34.3 nM.
Work on `CC(C)(C)Cn1c(N)nc2ccc(-c3[nH]c(C(C)(C)C)nc3-c3ccc(F)cc3F)nc21` yielded an IC50 (MAPK14 (mouse)) of 20.7 nM.
In the case of `CC(C)(C)Cn1c(N)nc2ccc(-c3[nH]c(-c4c(F)cccc4F)nc3-c3ccc(F)cc3)nc21`, the IC50 (MAPK14 (human)) is reported as 7.2 nM.
`CC(C)Cn1c(N)nc2ccc(-c3[nH]c(C(C)(C)C)nc3-c3ccccc3)nc21` showed an IC50 (MAPK14 (human)) of 5.1 nM and an IC50 (MAPK14 (mouse)) of 66.4 nM.
`CC(C)Cn1c(N)nc2ccc(-c3[nH]c(-c4c(Cl)cccc4Cl)nc3-c3ccc(F)cc3F)nc21` showed an IC50 (MAPK14 (mouse)) of 31.2 nM.
Compound `CC(C)(C)Cn1c(N)nc2ccc(-c3[nH]c(-c4c(Cl)cccc4Cl)nc3-c3ccc(F)cc3)nc21` has an IC50 (MAPK14 (human)) of 3.6 nM and an IC50 (MAPK14 (mouse)) of 23 nM.
In the case of `CC(C)(C)Cn1c(N)nc2ccc(-c3[nH]c(-c4c(F)cccc4Cl)nc3-c3ccccc3)nc21`, the IC50 (MAPK14 (mouse)) is reported as 39 nM.

Reference: the Kinase Knowledgebase extract (Sharma et al. 2016)
